ChEMBL document CHEMBL4257534, “Curcumin-based pyrazoline analogues as selective inhibitors of human monoamine oxidase A” (Medchemcomm, 2018)
pKi: −log10 of the molar value.

How the values were obtained:
[1] = target: T1, Amine oxidase [flavin-containing] A (Homo sapiens, UniProt P21397); assay: Inhibition of recombinant human MAO-A assessed as reduction in H2O2 production preincubated for 30 mins followed by p-tyramine substrate addition measured after 30 mins by amplex red reagent based fluorescence assay
T1 sequence (P21397 whole entry): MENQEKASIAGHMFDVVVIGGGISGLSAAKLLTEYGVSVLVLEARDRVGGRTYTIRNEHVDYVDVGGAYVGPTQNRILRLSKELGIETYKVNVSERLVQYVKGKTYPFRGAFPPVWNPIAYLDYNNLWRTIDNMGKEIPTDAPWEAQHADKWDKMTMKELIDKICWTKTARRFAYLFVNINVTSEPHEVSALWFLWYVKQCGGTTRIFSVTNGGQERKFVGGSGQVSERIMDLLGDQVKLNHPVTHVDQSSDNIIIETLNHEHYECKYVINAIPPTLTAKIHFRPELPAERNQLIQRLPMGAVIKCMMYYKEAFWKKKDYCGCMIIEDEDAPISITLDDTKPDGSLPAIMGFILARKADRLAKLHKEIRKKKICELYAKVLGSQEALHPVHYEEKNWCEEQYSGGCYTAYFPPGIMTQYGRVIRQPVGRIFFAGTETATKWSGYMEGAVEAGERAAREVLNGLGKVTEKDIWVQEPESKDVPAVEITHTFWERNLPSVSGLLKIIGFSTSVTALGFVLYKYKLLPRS

[2] = target: T2, Amine oxidase [flavin-containing] B (Homo sapiens, UniProt P27338)
T2 sequence (P27338 whole entry): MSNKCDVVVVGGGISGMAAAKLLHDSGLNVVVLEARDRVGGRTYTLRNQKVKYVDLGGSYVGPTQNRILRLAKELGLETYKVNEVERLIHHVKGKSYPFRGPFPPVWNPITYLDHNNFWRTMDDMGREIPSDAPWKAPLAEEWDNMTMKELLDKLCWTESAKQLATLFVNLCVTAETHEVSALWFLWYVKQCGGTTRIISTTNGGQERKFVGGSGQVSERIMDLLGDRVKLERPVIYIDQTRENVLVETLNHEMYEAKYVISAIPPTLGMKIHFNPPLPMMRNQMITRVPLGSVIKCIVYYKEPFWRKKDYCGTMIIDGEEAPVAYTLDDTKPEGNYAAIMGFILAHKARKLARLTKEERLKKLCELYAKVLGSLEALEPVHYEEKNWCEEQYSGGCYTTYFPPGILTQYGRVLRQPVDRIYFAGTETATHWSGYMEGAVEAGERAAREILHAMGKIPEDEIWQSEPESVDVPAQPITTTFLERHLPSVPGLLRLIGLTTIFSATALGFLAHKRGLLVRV
Description: Inhibition of recombinant human MAO-B assessed as reduction in H2O2 production preincubated for 30 mins followed by p-tyramine substrate addition measured after 30 mins by amplex red reagent based fluorescence assay

[3] = organism: Homo sapiens; assay: Selectivity index, ratio of Ki for recombinant human MAO-B to Ki for recombinant human MAO-A
[4] = target: T1, Amine oxidase [flavin-containing] A; assay: Competitive inhibition of recombinant human MAO-A assessed as reduction in H2O2 production preincubated for 30 mins followed by p-tyramine substrate addition measured after 30 mins by Lineweaver-Burk plot analysis; details: 0.5 h
[5] = target: T1, Amine oxidase [flavin-containing] A; assay: Reversible inhibition of recombinant human MAO-A assessed as enzyme activity recovery at 5 time Ki value preincubated for 15 mins followed by dilution of enzyme-inhibitor mixture for 24 hrs and subsequent p-tyramine substrate addition by dialysis method
[6] = Cytotoxicity against human HepG2 cells assessed as cell viability at 1 uM after 24 hrs by MTT assay relative to control; assay type: cell-based; details: read-out: Activity
[7] = Cytotoxicity against human HepG2 cells assessed as cell viability at 5 uM after 24 hrs by MTT assay relative to control; assay type: cell-based; details: read-out: Activity
[8] = Cytotoxicity against human HepG2 cells assessed as cell viability at 25 uM after 24 hrs by MTT assay relative to control; assay type: cell-based; details: read-out: Activity
[9] = in vitro; details: PAMPA
Description: Permeability of the compound at 50 ug/ml after 16 hrs by PAMPA

[10] = target: T1, Amine oxidase [flavin-containing] A; assay: Suicide inhibition of recombinant human MAO-A assessed as reduction in H2O2 production preincubated for 30 mins followed by p-tyramine substrate addition measured after 30 mins by Lineweaver-Burk plot analysis; details: 0.5 h
[11] = target: T1, Amine oxidase [flavin-containing] A; assay: Irreversible inhibition of recombinant human MAO-A at 5 time Ki value preincubated for 15 mins followed by dilution of enzyme-inhibitor mixture for 24 hrs and subsequent p-tyramine substrate addition by dialysis method

| Compound | pKi [1] | pKi [2] | Ratio Ki [3] | inhibition (INH) [4] | inhibition (INH) [5] | viability at 24 h, 1 µM [6] | viability at 24 h, 5 µM [7] | viability at 24 h, 25 µM [8] | Papp at 16 h, 50 ug/ml [9] | inhibition (INH) [10] | inhibition (INH) [11] |
| --- | --- | --- | --- | --- | --- | --- | --- | --- | --- | --- | --- |
| COc1cc(C2=NNC(c3ccc(Cl)cc3)C2)ccc1O (configuration not stated) | 7.10 | 3.85 | 1750 | Active | Active | 99% | 94.5% | 90.2% | 13.9 ×10⁻⁶ cm/s | – | – |
| C#CCN(C)[C@H](C)Cc1ccccc1 [SELEGILINE] | – | – | – | – | – | – | – | – | – | Active | Active |
| COc1cc(C2=NN(C(=S)Nc3ccccc3)C(c3ccc(Cl)cc3)C2)ccc1O (configuration not stated) | 4.71 | 2.32 | 244 | Active | Active | 95% | 88.2% | 80.3% | 9.55 ×10⁻⁶ cm/s | – | – |
| CCn1cc(C(=O)O)c(=O)c2cc(F)c(N3CCNC(C)C3)c(F)c21 (configuration not stated) [LOMEFLOXACIN] | – | – | – | – | – | – | – | – | 1.24 ×10⁻⁶ cm/s | – | – |
| NCCNC(=O)c1ccc(Cl)cn1 [LAZABEMIDE] | 2.10 | – | – | Active | Active | – | – | – | – | – | – |
| COc1cc(C2=NN(C(=O)Oc3ccccc3)C(c3ccc(Cl)cc3)C2)ccc1O (configuration not stated) | 3.71 | 2.24 | 29.9 | Active | Active | 93.1% | 81.7% | 77% | – | – | – |
| COc1cc(C2=NN(S(=O)(=O)c3ccc(C)cc3)C(c3ccc(Cl)cc3)C2)ccc1O (configuration not stated) | 4.40 | 2.22 | 150 | Active | Active | 91.2% | 79.5% | 64.1% | 12 ×10⁻⁶ cm/s | – | – |
| O=C(NCCN1CCOCC1)c1ccc(Cl)cc1 [MOCLOBEMIDE] | – | – | – | Active | Active | – | – | – | – | – | – |
| C[C@]12CC[C@@H]3c4ccc(O)cc4CC[C@H]3[C@@H]1CC[C@@H]2O [ESTRADIOL] | – | – | – | – | – | – | – | – | 11.8 ×10⁻⁶ cm/s | – | – |
| COc1cc(C2=NN(C(=O)c3ccccc3)C(c3ccc(Cl)cc3)C2)ccc1O (configuration not stated) | 4.58 | 2.22 | 229 | Active | Active | 90% | 86.3% | 78.2% | – | – | – |
